The text below walks through data of patent publication US8946482B2, “Salts of rasagiline and pharmaceutical preparations thereof” (Ratiopharm GmbH, priority 2009, dated 2015).

Like-named read-outs stand apart in the source and are kept apart here.

For this series the following is noted: for physical state of the salt: room temperature. The method, then:
The term “liquid” means that the salt is in a state of matter where the particles are loose and can freely form a distinct surface at the boundaries of the bulk material. The liquid's shape is determined by the container it fills. The liquid can be of low or high viscosity, e.g. in the form of an oil or thick oil.
The liquid salt of the present invention can be prepared by mixing rasagiline and the acid and recovering the salt. […] Efficient mixing can be mediated by the use of a mixer mill. Alternatively, the rasagiline and the acid can be mixed in the presence of a solvent. In this case, either the rasagiline or the acid or the rasagiline and the acid can be suspended or dissolved in the same or different solvents before mixing. For example, first the rasagiline can be dissolved in the solvent and then the acid is added to this solution. Suitable solvents are, e.g., water, tetrahydrofurane, isopropyl alcohol, acetone, diisopropyl ether, and mixtures thereof. Preferred solvents are diisopropyl ether and acetone.
In the following table 1, the reference examples and examples of the present invention are summarized: […]

Regarding `C#CCN[C@@H]1CCc2ccccc21` [Ref. Ex. 7, Rasagiline Lauryl Sulphate], the “physical state of the salt” value is “solids”.

As to Rasagiline Docusate [Ref. Ex. 6], the “physical state of the salt” value is “solid wax”.

For the compound `C#CCNC1CCc2ccccc21.O=C1NS(=O)(=O)c2ccccc21` (stereo not shown) [Ref. Ex. 5, Rasagiline Saccharinate], the “physical state of the salt” value was “solid”.

For `C#CCN[C@@H]1CCc2ccccc21.CC(=O)O` [Ref. Ex. 9, Rasagiline Acetate], the “physical state of the salt” value is reported as “crystalline solid”.

`C#CCN[C@@H]1CCc2ccccc21` [Ref. Ex. 8, Rasagiline 4-dodecylbenzenesulfonate]: the “physical state of the salt” value (listed as rasagiline dodecyl benzene sulphonate) was “solids”.

On to `C#CCN[C@@H]1CCc2ccccc21` [Ex. 3, Rasagiline Propanoate], for which the “physical state of the salt at 0° C.” value (0° C.) is “solid”. In addition, for the setting “listed as Rasagiline propionate”, the “physical state of the salt” value was “oil”.
